We go through 19 molecules from patent US20100216767A1, “QUINAZOLINES FOR PDK1 INHIBITION” (priority 2006, published 2010).

As a reminder, the IC50 is the point on the concentration scale where inhibition reaches its midpoint. Higher therefore signals a need for much substance.

Each structure is given as a SMILES string.

The test addresses T1, PDK1 kinase (Homo sapiens, UniProt O15530).
T1 sequence (O15530 1-556): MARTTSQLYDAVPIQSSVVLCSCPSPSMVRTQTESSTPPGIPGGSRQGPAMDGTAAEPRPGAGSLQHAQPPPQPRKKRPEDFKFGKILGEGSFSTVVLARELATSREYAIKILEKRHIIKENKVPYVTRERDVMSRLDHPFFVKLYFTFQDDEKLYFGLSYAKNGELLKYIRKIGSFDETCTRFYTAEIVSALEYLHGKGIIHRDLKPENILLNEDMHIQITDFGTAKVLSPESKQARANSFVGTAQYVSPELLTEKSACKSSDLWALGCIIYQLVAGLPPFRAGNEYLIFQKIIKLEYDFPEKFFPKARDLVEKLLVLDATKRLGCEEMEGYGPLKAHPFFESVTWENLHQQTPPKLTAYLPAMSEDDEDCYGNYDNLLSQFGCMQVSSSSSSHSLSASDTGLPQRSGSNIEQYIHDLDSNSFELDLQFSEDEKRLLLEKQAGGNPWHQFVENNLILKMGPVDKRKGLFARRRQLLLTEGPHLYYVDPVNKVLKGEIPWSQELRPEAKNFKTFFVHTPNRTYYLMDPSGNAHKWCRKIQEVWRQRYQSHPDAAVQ
Description: PDK1 Kinase Alpha Screen Assay. The class given is biochemical. The note with it: Table 1; 10 μM ATP, 50 nM PDK1-4 peptide. The procedure, abridged:
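PDK1 phosphorylation of 50 nM biotinylated PDK1-4 peptide with 10 μM ATP in 50 mM Tris pH 7.5, 10 mM MgCl2, 0.1% BSA, 0.01% Tween-20, 2 mM DTT, 2.5% DMSO, 3-18 h. Stopped with EDTA; phosphopeptide detected by AlphaScreen using phospho-(Ser/Thr) PKA substrate antibody on protein A acceptor and streptavidin donor beads, overnight at room temperature.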
Consider `CC(=O)Nc1cc(CN(C)C)cc(Nc2ncc3cc(Br)ccc3n2)c1` [Example 147, N-(3-(6-bromoquinazolin-2-ylamino)-5-((dimethyl-amino)methyl)phenyl)-acetamide], for which the IC50 was under 5 µM. Turning to `CC#Cc1ccc2nc(Nc3cc(CN(C)C)cc(NC(C)=O)c3)ncc2c1` [Example 148, N-(3-((dimethylamino)-methyl)-5-(6-(prop-1-ynyl)quinazolin-2-ylamino)phenyl)acetamide], the IC50 was under 5 µM. For `C#Cc1ccc2nc(Nc3cc(CN4CCOCC4)cc(-c4nnn[nH]4)c3)ncc2c1` [Example 149, 6-ethynyl-N-(3-(morpholinomethyl)-5-(1H-tetrazol-5-yl)phenyl)-quinazolin-2-amine] the value was under 5 µM; for `COc1cc2nc(Nc3ccc(N4CCOCC4)cc3)ncc2cc1-c1cn[nH]c1` [Example 150, 7-methoxy-N-(4-morpholinophenyl)-6-(1H-pyrazol-4-yl)quinazolin-2-amine], under 5 µM; for `N#Cc1cc(CN2CCOCC2)cc(Nc2ncc3cc(Br)ccc3n2)c1` [Example 151, 3-(6-bromoquinazolin-2-ylamino)-5-(morpholino-methyl)benzonitrile], under 5 µM.

For the molecule `C#Cc1ccc2nc(Nc3cc(C#N)cc(CN4CCOCC4)c3)ncc2c1` [Example 152, 3-(6-ethynylquinazolin-2-ylamino)-5-(morpholino-methyl)benzonitrile], the IC50 was under 5 µM.

Molecule `CC(=O)Nc1cc(Nc2ncc3cc(Br)ccc3n2)cc(-c2cn[nH]c2)c1` [Example 153, N-(3-(6-bromoquinazolin-2-ylamino)-5-(1H-pyrazol-4-yl)phenyl)acetamide] displayed an IC50 of under 5 µM. To `C#Cc1ccc2nc(Nc3cc(OC)cc(-n4nnnc4C)c3)ncc2c1` [Example 156, 6-ethynyl-N-(3-methoxy-5-(5-methyl-1H-tetrazol-1-yl)phenyl)quinazolin-2-amine] belongs under 5 µM. Take `C#Cc1ccc2nc(Nc3cc(-c4ccncc4)cc(N4CCOCC4)c3)ncc2c1` [Example 157, 6-ethynyl-N-(3-morpholino-5-(pyridin-4-yl)phenyl)quinazolin-2-amine]: the IC50 was under 5 µM. Consider `C#Cc1ccc2nc(Nc3cc(-c4cn[nH]c4)cc(N4CCOCC4)c3)ncc2c1` [Example 158, 6-ethynyl-N-(3-morpholino-5-(1H-pyrazol-4-yl)phenyl)-quinazolin-2-amine], for which the IC50 is under 5 µM. With `C#Cc1ccc2nc(Nc3cc(-c4cccnc4)cc(N4CCOCC4)c3)ncc2c1` [Example 159, 6-ethynyl-N-(3-morpholino-5-(pyridin-3-yl)phenyl)quinazolin-2-amine], the IC50 is under 5 µM. To `C#Cc1ccc2nc(Nc3cc(-c4ccncc4F)cc(N4CCOCC4)c3)ncc2c1` [Example 160, 6-ethynyl-N-(3-(3-fluoro-pyridin-4-yl)-5-morpholinophenyl)-quinazolin-2-amine] belongs under 5 µM; to `C#Cc1ccc2nc(Nc3cc(CN4CCOCC4)cc(NC(C)=O)c3)ncc2c1F` [Example 161, N-(3-(6-ethynyl-5-fluoro-quinazolin-2-ylamino)-5-(morpholinomethyl)-phenyl)-acetamide], under 5 µM; to `C#Cc1ccc2nc(Nc3cc(CN4CCOCC4)cc(NS(C)(=O)=O)c3)ncc2c1F` [Example 162, N-(3-(6-ethynyl-5-fluoro-quinazolin-2-ylamino)-5-(morpholinomethyl)-phenyl)-methanesulfonamide], under 5 µM.

With `COc1cc(-c2nccs2)c(-c2nccs2)c2cnc(Nc3ccc(N4CCOCC4)cc3)nc12` [Example 169, 8-methoxy-N-(4-morpholinophenyl)-5,6-di(thiazol-2-yl)quinazolin-2-amine], the IC50 was under 5 µM.

In turn, `COc1cc(-c2nccs2)c(-c2nccs2)c2cnc(Nc3ccc(C(=O)N4CCOCC4)cc3)nc12` [Example 170, (4-(8-methoxy-5,6-di(thiazol-2-yl)quinazolin-2-ylamino)phenyl)-(morpholino)methanone] came in with an IC50 of 5 to 10 µM.

With `C#Cc1cc2cnc(Nc3cc(OC)cc(-n4nnnc4C)c3)nc2cc1OC` [Example 172, 6-ethynyl-7-methoxy-N-(3-methoxy-5-(5-methyl-1H-tetrazol-1-yl)phenyl)-quinazolin-2-amine], the IC50 was 5 to 10 µM. As for `COc1cc2cnc(Nc3cc(CN4CCOCC4)cc(NC(C)=O)c3)nc2cc1OC` [Example 174, N-(3-(6,7-dimethoxy-quinazolin-2-ylamino)-5-(morpholinomethyl)-phenyl)acetamide], the IC50 was under 5 µM. To `COc1cc2nc(Nc3cc(CN4CCOCC4)cc(NC(C)=O)c3)ncc2cc1-c1cn[nH]c1` [Example 175, N-(3-(7-methoxy-6-(1H-pyrazol-4-yl)quinazolin-2-ylamino)-5-(morpholino-methyl)phenyl)acetamide] belongs under 5 µM.
